Measured values from patent US20220387403A1, “COMPOUNDS, COMPOSITIONS AND METHODS FOR TREATING NASH, NAFLD, AND OBESITY” (CVI Pharmaceuticals Limited, priority 2019, published 2022).
Entries after “also recorded” stand apart in the source; their conditions may differ.

What was measured:
LDLR mRNA [1] = assay: LDLR mRNA expression in HepG2 cells, semi-quantitative RT-PCR; type: cell-based, human; conditions: 8 hours, FIG. 3
Description: HepG2 cells obtained from American Tissue Culture Collection (Manassas, Va., USA) were seeded in 6-well culture plates at a density of 0.8×10^6 cells/well cultured in EMEM containing 0.5% FBS and were treated with each purified compound at indicated doses for 8 hours. Total RNA was isolated, and 2 μg per sample was reverse transcribed with random primers using M-MLV (Promega) at 37° C. for 1 hour. PCR was carried out at 94° C. for 30 sec, 60° C. for 30 sec, and 72° C. for 30 sec with initial activation of the enzyme at 94° C. for 1 minute. Thirty cycles were performed for LDLR and GAPDH. PCR was performed using primers HLDLR-up and HLDLR-lo for LDLR and primers HGAPDH-up and HGAPDH-lo for GAPDH. The PCR products were separated on a 1% agarose gel and the band intensity was quantitated. LDLR mRNA levels were corrected by measuring GAPDH mRNA levels.
Specific stereochemical requirements of +/−THP in the upregulation of LDLR mRNA expression were determined by a similar experiment. HepG2 cells were treated with the pure 14R-(+)-THP or the pure 14S-(−)-THP at the indicated concentrations for 24 hours. The levels of LDLR mRNA and GAPDH mRNA in untreated and the compound-treated HepG2 cells were assessed by semi-quantitative RT-PCR.

LDLR mRNA [2] = assay: LDLR mRNA expression in HepG2 cells, quantitative real-time RT-PCR; type: cell-based, human; conditions: 24 hours; for Activity on LDLR mRNA at 10 uM (fold of control) / Activity on LDLR mRNA at 40 uM (fold of control): mean ± s.d.
Description: Activities of some compounds of Formulas I, II, III, and IV on LDLR mRNA expression were determined. HepG2 cells were treated with new compounds individually at a dose less than or equal to 10 μM for 24 hours. Total RNA was harvested for quantitative real-time RT-PCR analysis using the method described in Example 16B. […] In these experiments, berberine chloride was included for comparison. […]
Total RNA was harvested for quantitative real-time RT-PCR analysis using method described in Examples 16B.
(§1) The effects of 23 compounds on the mRNA expressions of LDLR and PCSK9 were examined using quantitative real-time RT-PCR assays. HepG2 cells were treated with various compounds at 10 and 40 uM concentrations for 24 hours. Total RNA was isolated and 2 μg was used to generate cDNA in a reaction containing random primers and M-MLV at 37° C. for 1 h in a volume of 25 μl. Real-time PCR was performed on the cDNA using MCEP REALPLEX 2 SYSTEM (Eppendorf) and Universal MasterMix (Applied Biosystems). Human LDLR, PCSK9, and GAPDH Pre-Developed TaqMan Assay Reagents (Applied Biosystems) were used to assess the levels of mRNA expressions in HepG2. The levels of LDLR and PCSK9 mRNA were normalized to that of GAPDH. Each RNA samples was assayed in duplicate. The fold activity was calculated by dividing mRNA abundance in compound treated cells with that of control.

PCSK9 mRNA = PCSK9 mRNA expression in HepG2 cells, quantitative real-time RT-PCR; type: cell-based, human; conditions: 24 hours; for Activity on PCSK9 mRNA reduction at 10 uM (fold of control) / Activity on PCSK9 mRNA reduction at 40 uM (fold of control): mean ± s.d.
Description: The time-dependent effects of compounds of Formula I, II, III, and IV on the upregulation of LDLR mRNA and the inhibition of PCSK9 mRNA expression were examined (Horton J D, Cohen J C, Hobbs H H. “Molecular biology of PCSK9: its role in LDL metabolism” TRENDS in Biochemical Sciences 2007; 32:71-77). HepG2 cells were treated with new compounds individually at 20 uM dose for 1 day, 2 day, and 3 days. Total RNA was isolated and 2 μg was used to generate cDNA in a reaction containing random primers and M-MLV at 37° C. for 1 hour in a volume of 25 μl. Real-time PCR was performed on the cDNA using MCEP REALPLEX 2 SYSTEM (Eppendorf) and Universal MasterMix (Applied Biosystems). Human LDLR, PCSK9, and GAPDH Pre-Developed TaqMan Assay Reagents (Applied Biosystems) were used to assess the levels of mRNA expressions in HepG2. The levels of LDLR mRNA or PCSK9 mRNA were normalized to that of GAPDH. Each RNA samples was assayed in triplicate. The abundance of LDLR mRNA or PCSK9 mRNA in untreated cells was defined as 1, and the amounts of LDLR mRNA or PCSK9 from compound-treated cells were plotted relative to that value (FIG. 10). The data shown are mean±s.d.
Total RNA was harvested for quantitative real-time RT-PCR analysis using method described in Examples 16B. The fold activity was derived by dividing the amount of normalized LDLR or PCSK9 mRNA in compound-treated cells over the amount of LDLR or PCSK9 mRNA in untreated control cells.
as §1

NAFLD hamster model = assay: High fat and high cholesterol diet induced NAFLD hamster model; type: in vivo; conditions: 4 weeks
Description: In a high fat and high cholesterol diet (HFHCD) induced non-alcoholic fat liver disease (NAFLD) hamster model, hamsters were fed a HFHCD for two weeks then treated for 4 weeks with C128 at 10 mg/kg, 20 mg/kg and 40 mg/kg, along with fenofibrate at 50 mg/kg as a positive control. Serum lipids and liver enzymes were measured using standard techniques. Liver tissue histopathology with Oil-red O staining and H&E staining were also performed.
In a high fat and high cholesterol diet (HFHCD) induced NAFLD hamster model, hamsters were fed a HFHCD for two weeks then treated for 4 weeks with C127 at 80 mg/kg or with fenofibrate 50 mg/kg.

obese Cynomolgus monkeys = assay: Obese Cynomolgus monkeys fed a high fat diet (DEXA scan, serum parameters); type: in vivo; conditions: 40 mg/kg/day PO three weeks, then 80 mg/kg/day weeks 4-6
Text: Twelve obese Cynomolgus monkeys were fed a high fat diet containing 0.5% cholesterol for 6 weeks before the treatment phase. Before the treatment with compound 127 (C127) or vehicle, all animals received a assessment of whole body and fat composition using Dual Energy X-Ray Absorptiometry (DEXA) whole body scan to measure body fat content and bone mineral density/content (reference: Black, A., Tilmont, E. M., Baer, D. J., Rumpler W. V., et. Al. Accuracy and precision of dual-energy X-ray absorptiometry for body composition measurements in rhesus monkeys. Journal of Medical Primatology, 30:94-99, 2001. Six monkeys received vehicle by PO and six monkeys received C127 at 40 mg/kg/day by PO for three weeks; from week 4-6, C127 dose was increased to 80 mg/kg/day. Dosing was ended after 6-weeks treatment, followed by DEXA scan on all animals.

NASH hamster model = assay: Free-choice diet-induced NASH hamster model; type: in vivo; conditions: for NAS score / fibrosis / hepatocyte ballooning: C128 100 mg/kg, elafibranor 15 mg/kg, orally QD for 5 weeks
Description: In a free-choice diet-induced NASH hamster model, hamsters were fed a free choice diet (free choice between a chow diet with normal tap water or a high fat/cholesterol diet (Safe Diets) with 10% fructose enriched tap water) for up to 20 weeks (15 weeks diet and 5 weeks treatment). After 15 weeks of diet, hamsters were randomized into 3 homogenous groups (n=10/group) and were treated with vehicle, compound 128 (C128) at 100 mg/kg, or PPAR dual agonist elafibranor 15 mg/kg orally QD for 5 weeks. […] The study results are illustrated by FIGS. 17 to 19.

[3] = 100 mg/kg orally QD for 5 weeks

COc1cc2c(cc1OC)[C@H]1[C@@H](C)c3ccc(OC)c(OC)c3CN1CC2 [14R,13S-(+)-CRDL, 14R,13S-(+)-corydaline]
effects on LDLR mRNA expression (in words) (LDLR mRNA [1]): potent and dose-dependent effects

COc1cc2c(cc1OC)C1Cc3ccc(OC)c(OS(=O)(=O)c4ccccc4)c3CN1CC2 (centres unmarked) [Compound 91, 2,3,10-trimethoxy-5,6,7,8,13,13a-hexahydroisoquinolino[2,1-b]isoquinolin-9-yl benzenesulfonate]
LDLR mRNA expression vs concentration (in words) (LDLR mRNA [2]; FIG. 15A): dose-dependently increases | PCSK9 mRNA expression vs concentration (in words) (PCSK9 mRNA; FIG. 15B): inhibits

COc1cc2c(cc1OC)C1Cc3ccc(OC)c(OS(=O)(=O)c4cccc(F)c4)c3CN1CC2 (centres unmarked) [Compound 127, 2,3,10-trimethoxy-5,6,7,8,13,13a-hexahydroisoquinolino[2,1-b]isoquinolin-9-yl 3-fluorobenzenesulfonate]
hepatocyte lipid droplet vacuoles, cell and neutrophil infiltration (H&E) (NAFLD hamster model; C127 80 mg/kg): reduced | hypolipidemic effect (NAFLD hamster model; C127 80 mg/kg): significant hypolipidemic effect | lipid deposition in the liver (NAFLD hamster model; C127 80 mg/kg): effectively reduced | body weight, BMI and body fat (DEXA) (obese Cynomolgus monkeys): reduced | bone mineral content (DEXA) (obese Cynomolgus monkeys): improved | liver enzyme ALT (obese Cynomolgus monkeys): significant reduction | serum LDL-C, TC (obese Cynomolgus monkeys): trend in reducing | Activity on LDLR mRNA at 10 uM (fold of control) (LDLR mRNA [2]): 1.80 ± 0.13 fold of control | Activity on LDLR mRNA at 40 uM (fold of control) (LDLR mRNA [2]): 2.38 ± 0.38 fold of control | Activity on PCSK9 mRNA reduction at 10 uM (fold of control) (PCSK9 mRNA): 0.197 ± 0.014 fold of control | Activity on PCSK9 mRNA reduction at 40 uM (fold of control) (PCSK9 mRNA): 0.192 ± 0.016 fold of control

COc1ccc2c(c1)CCN1Cc3c(ccc(OC)c3OS(=O)(=O)c3cccc(F)c3)CC21 (centres unmarked) [Compound 128, 3,10-dimethoxy-5,6,7,8,13,13a-hexahydroisoquinolino[2,1-b]isoquinolin-9-yl 3-fluorobenzenesulfonate]
inflammation score (NASH hamster model; [3]): trend towards lower | steatosis score (NASH hamster model; [3]): trend towards lower | NAS score (NASH hamster model): significant reduction | fibrosis (NASH hamster model): significantly lowered; also recorded: not detected | hepatocyte ballooning (NASH hamster model): significantly lowered | lipid droplets in the hepatocytes and cellular inflammation (H&E) (NAFLD hamster model; 20 mg/kg and 40 mg/kg groups): alleviated to varying degrees | hepatocyte lipid droplet, hepatocyte ballooning and cellular inflammation (H&E) (NAFLD hamster model; 40 mg/kg group): significantly reduced | circulating cholesterol and triglycerides (serum TC, LDL-C, TG) (NAFLD hamster model; C128 10, 20 and 40 mg/kg): significantly reduced | diet induced elevations of liver enzymes (ALT, AST, ALP) (NAFLD hamster model; C128 10, 20 and 40 mg/kg): significantly reduced | fat accumulation in liver tissues (NAFLD hamster model; C128 10, 20 and 40 mg/kg): significantly reduced | Activity on LDLR mRNA at 10 uM (fold of control) (LDLR mRNA [2]): 7.52 ± 0.26 fold of control | Activity on LDLR mRNA at 40 uM (fold of control) (LDLR mRNA [2]): 13.36 ± 0.46 fold of control | Activity on PCSK9 mRNA reduction at 40 uM (fold of control) (PCSK9 mRNA): 0.86 ± 0.029 fold of control

COc1ccc2c(c1OS(=O)(=O)c1cccc(F)c1)CN1CCc3cc4c(cc3C1C2)OCCO4 (centres unmarked) [Compound 129, 11-Methoxy-6,7,8,9,14,14a-hexahydro-2H,3H-1,4-dioxano[5,6-g]isoquinolino[3,2-a]isoquinolin-10-yl 3-fluorobenzenesulfonate]
Activity on LDLR mRNA at 10 uM (fold of control) (LDLR mRNA [2]): 2.49 ± 0.18 fold of control | Activity on LDLR mRNA at 40 uM (fold of control) (LDLR mRNA [2]): 1.99 ± 0.13 fold of control | Activity on PCSK9 mRNA reduction at 10 uM (fold of control) (PCSK9 mRNA): 1.57 ± 0.07 fold of control | Activity on PCSK9 mRNA reduction at 40 uM (fold of control) (PCSK9 mRNA): 1.68 ± 0.41 fold of control

COc1ccc2c(c1OS(=O)(=O)c1cccc(F)c1)CN1CCc3cc(C)ccc3C1C2 (centres unmarked) [Compound 130, 10-Methoxy-3-methyl-5,6,7,8,13,13a-hexahydroisoquinolino[2,1-b]isoquinolin-9-yl 3-fluroobenzenesulfonate]
Activity on LDLR mRNA at 10 uM (fold of control) (LDLR mRNA [2]): 4.29 ± 0.65 fold of control | Activity on LDLR mRNA at 40 uM (fold of control) (LDLR mRNA [2]): 9.00 ± 1.49 fold of control | Activity on PCSK9 mRNA reduction at 10 uM (fold of control) (PCSK9 mRNA): 2.11 ± 0.11 fold of control

COc1cc2c(cc1OCCO)C1Cc3ccc(OC)c(OS(=O)(=O)c4ccccc4)c3CN1CC2 (centres unmarked) [Compound 143, 2-(2-hydroxyethoxy)-3,10-dimethoxy-5,6,7,8,13,13a-hexahydroisoquinolino[2,1-b]isoquinolin-9-yl benzenesulfonate]
Activity on LDLR mRNA at 10 uM (fold of control) (LDLR mRNA [2]): 1.87 ± 0.03 fold of control | Activity on LDLR mRNA at 40 uM (fold of control) (LDLR mRNA [2]): 14.97 ± 1.68 fold of control | Activity on PCSK9 mRNA reduction at 10 uM (fold of control) (PCSK9 mRNA): 1.09 ± 0.09 fold of control

CSc1ccc(C(=O)/C=C/c2cc(C)c(OC(C)(C)C(=O)O)c(C)c2)cc1 [elafibranor, reference compound]
NAS score (NASH hamster model): significant reduction | fibrosis (NASH hamster model): reduced fibrosis, although to a lesser degree | hepatocyte ballooning (NASH hamster model): reduced

CC(C)OC(=O)C(C)(C)Oc1ccc(C(=O)c2ccc(Cl)cc2)cc1 [fenofibrate, reference compound]
Body and liver weights (NAFLD hamster model; C128 10, 20 and 40 mg/kg, fenofibrate 50 mg/kg): elevated by a statistically significant amount
